# In PMC9747717, “A novel small molecule inhibitor of human Drp1” (Scientific Reports, 2022):
# Values joined by “and” are separate entries in the source; they are usually repeats but may differ in a detail not shown here. Equal values may be shown once.
# Target: T1, human Drp1 isoform 3 (Homo sapiens, UniProt O00429)
# T1 construct: His tag; made in house; host or cells: E. coli Rosetta (DE3), pET21b vector
# Experiment: Microscale thermophoresis (MST) binding
# Conditions: human Drp1 isoform 3, 5% DMSO
# Method: The recombinant human Drp1 protein (His-tagged human Drp1 isoform 3, kindly provided by Professor Michael Ryan, Monash University, Australia) was generated as described previously. Briefly, cDNA for human Drp1 (isoform 3) was cloned into pET21b vector and transformed in Rosetta (DE3) competent cells (Novagen, MA, Merck Millipore). Transformed cells were propagated in Luria–Bertani broth and protein expression was initiated by the addition of 0.5 mM isopropyl β-D-1-thiogalactopyranoside. Cells were harvested by centrifugation at 3,500 g for 20 min at 4 °C, and the pellet was re-suspended in lysis buffer containing 50 mM Tris HCl (pH 7.3), 500 mM NaCl, 50 mM imidazole, 2.5 mM β-mercaptoethanol, 0.01 mM LEUPEP, 0.1 mM AEBSF and 1 mM benzaminidium chloride. The cells were lysed using a pre-cooled EmulsiFlex-C5 homogenizer (Avestin, Ontario, Canada) on ice and clarified by centrifugation at 17,000 g for 30 min. The clarified cell lysate was loaded onto a 5 mL Nickel Chelating Sepharose Fast Flow column (GE Healthcare, Buckinghamshire, UK) and Drp1 protein was eluted with wash buffer containing 50 mM Tris–HCl (pH 7.6), 150 mM NaCl, 2.5 mM β-mercaptoethanol and 400 mM imidazole. […]
# Compound binding was assessed in against the human Drp1 isoform-3 protein using MST Monolith NT.115 instrument (NanoTemper Technologies, Mȕnchen, Germany). […]
# T1 sequence (O00429 1-699 isoform O00429-4): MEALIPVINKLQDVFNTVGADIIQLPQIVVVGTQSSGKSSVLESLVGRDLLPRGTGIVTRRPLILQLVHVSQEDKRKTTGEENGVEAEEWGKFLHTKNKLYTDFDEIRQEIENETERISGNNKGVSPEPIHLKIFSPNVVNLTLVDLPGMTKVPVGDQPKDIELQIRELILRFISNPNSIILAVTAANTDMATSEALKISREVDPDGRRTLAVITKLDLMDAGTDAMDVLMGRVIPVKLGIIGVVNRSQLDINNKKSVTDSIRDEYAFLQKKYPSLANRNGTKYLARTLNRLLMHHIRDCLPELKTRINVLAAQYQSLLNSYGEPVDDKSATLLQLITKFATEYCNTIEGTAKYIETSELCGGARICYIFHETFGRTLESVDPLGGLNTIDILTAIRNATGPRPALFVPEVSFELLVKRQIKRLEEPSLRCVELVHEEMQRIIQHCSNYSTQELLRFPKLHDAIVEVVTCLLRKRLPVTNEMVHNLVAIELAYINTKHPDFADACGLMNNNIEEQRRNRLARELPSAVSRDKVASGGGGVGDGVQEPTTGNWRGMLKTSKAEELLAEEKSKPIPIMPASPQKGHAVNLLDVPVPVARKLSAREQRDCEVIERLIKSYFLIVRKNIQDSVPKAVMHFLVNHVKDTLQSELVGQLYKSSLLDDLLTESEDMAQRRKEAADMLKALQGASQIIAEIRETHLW
smiles,measurement,value
Cc1nc[nH]c1CN1C[C@@H]2CC[C@H](C1)N(Cc1ccc(-c3cc[nH]n3)o1)C2 [DRP1i27],Kd,191 µM and 190 µM
